# US8592648B2, “Seed treatment with combinations of pyrethrins/pyrethroids and thiamethoxam” (Monsanto Technology, LLC, priority 2000, dated 2013)
# Tests used:
# [1] = tested on: corn plants (Pioneer hybrid PN3394); assay: Vigor rating of corn plants before infestation (indication of phytotoxicity); assay type: in vivo; conditions: rating 1=extremely low vigor, 10=highest
# Procedure: (§1) A lambda-cyhalothrin seed treatment formulation was prepared by diluting the WARRIOR® T insecticide (Zeneca Ag Products, Wilmington, Del.), which contains 11.4% lambda-cyhalothrin as the active ingredient, into water as a carrier. This formulation was applied for one minute at room temperature to twenty-five grams of Pioneer corn seed (Cultivar PN3394) in a rotostatic seed treater at a rate of 125 g, 250 g or 500 g active ingredient (Al) to 100 kg seed. The treated seeds were allowed to sit uncapped for four to twenty-four hours before planting.
# (§2) Treated and untreated seeds (Pioneer hybrid PN3394) were planted in a soil mix consisting of Dupo silt loam, 30% Perlite, 20% coarse sand (WB-10 grade) in six groups of tubs (20 in. L×15 in. W×8 in. D). Twelve seeds were planted per tub and three tubs were planted for each treatment regimen. Soil applications of FORCE® 3GR, which contains 3% tefluthrin granule as the active ingredient, were used for two sets of tubs containing untreated seeds. The FORCE 3GR was applied either in-furrow or incorporated into a 5 inch band on the soil surface at the time of planting. The tubs were overhead irrigated until the plants were infested with black cutworm larvae.
# At twelve days after planting (DAP) but before infestation, the overall health of each plant was rated by looking at emergence, height and appearance. This vigor rating gives an indication of any phytotoxicity from the seed or soil treatment. A rating of 1 indicates extremely low vigor while 10 is the highest vigor rating.
# black cutworm larvae = assay: Black cutworm feeding damage on corn shoots and foliage, seed treatment vs soil granular treatment (Reference Example 1); assay type: in vivo; conditions: for Plant Defol. 3 DAI / Plant Defol. 7 DAI / Plant Defol. 10 DAI: rating 1=no damage, 10=complete defoliation
# Procedure: This example compares the efficacy of seed treatment with lambda-cyhalothrin (CAS #91465-08-6) to soil granular treatments with tefluthrin (CAS #79538-32-2) against feeding damage by black cutworm larvae on shoots and foliage.
# as §1, §2
# The rate of application for the FORCE 3GR was reported in units of grams of the active ingredient per hectare (g/ha), while the rate of application of the WARRIOR T to the seeds was reported in units of grams of the active ingredient per 100 kilograms of the seeds (g/100 kg). Although the conversion of one of these units to the other will vary somewhat according to the type of seed that is being used, the size and weight of the seed, and the density of planting that is used—among other things—an approximate conversion for corn seed can be carried out as follows. Assuming a seed application rate of lambda cyhalothrin of, for example, 125 g/100 kg of seed and a planting density of 15 lbs seed/ac, about 14.7 acres can be planted with 100 kg of the seed. This is an effective application rate of about 8.5 g of lambda cyhalthrin per acre. At 2.47 ac/ha, the seed treatment level of 125 g/100 kg is approximately equivalent to a surface banding treatment at about 21 g/ha.
# The corn plants were infested at 12 DAP, which corresponds to late growth stage V1 by placing two black cutworm larvae at ¾ instar on the soil surface near the base of the plant. Plants were rated 3, 7 and 10 days after infestation (DAI) for the number of cut plants, as well as damage from leaf feeding. The percent stand reduction due to plant cutting was calculated by dividing the number of cut plants into the number of plants present at infestation. The foliar feeding injury was evaluated using a rating scale of 1=no damage and 10=complete defoliation.
smiles,measurement,setting,value
"Cc1c(F)c(F)c(COC(=O)[C@@H]2[C@H](/C=C(\Cl)C(F)(F)F)C2(C)C)c(F)c1F (racemic) [Tefluthrin, (2,3,5,6-tetrafluoro-4-methylphenyl)-methyl-(1 alpha, 3 alpha)-(Z)-(±)-3-(2-chloro-3,3,3-trifluoro-1-propenyl)-2,2-dimethylcyclopropanecarboxylate]",Vigor at 12 DAP,[1]; banded 30 g/ha (FORCE 3GR),8.7
same,Vigor at 12 DAP,[1]; in-furrow 30 g/ha (FORCE 3GR),9.0
same,% Stand Reduct'n 3 DAI,black cutworm larvae; banded 30 g/ha (FORCE 3GR),0.0%
"CC1(C)[C@H](C(=O)O[C@H](C#N)c2cccc(Oc3ccccc3)c2)[C@@H]1/C=C(\Cl)C(F)(F)F [λ-cyhalothrin, [1 alpha(s), 3 alpha(z)]-cyano(3-phenoxyphenyl) methyl-3-(2-chloro-3,3,3-trifluoro-1-propenyl)-2,2-dimethylcyclopropane carboxylate]",Vigor at 12 DAP,[1]; seed treatment 125 g/100 kg,9.0
same,Vigor at 12 DAP,[1]; seed treatment 250 g/100 kg,8.3
same,Vigor at 12 DAP,[1]; seed treatment 500 g/100 kg,8.3
same,Plant Defol. 3 DAI,black cutworm larvae; seed treatment 125 g/100 kg,4.3
same,Plant Defol. 7 DAI,black cutworm larvae; seed treatment 125 g/100 kg,5.0
same,Plant Defol. 10 DAI,black cutworm larvae; seed treatment 125 g/100 kg,3.3
same,% Stand Reduct'n 3 DAI,black cutworm larvae; seed treatment 250 g/100 kg,3.0%
same,Plant Defol. 3 DAI,black cutworm larvae; seed treatment 250 g/100 kg,3.7
same,% Stand Reduct'n 7 DAI,black cutworm larvae; seed treatment 250 g/100 kg,3.0%
same,% Stand Reduct'n 7 DAI,"black cutworm larvae; seed treatment 250 g/100 kg, listed as lambda-cyhalothrin",3%
same,Plant Defol. 7 DAI,black cutworm larvae; seed treatment 250 g/100 kg,2.7
same,% Stand Reduct'n 10 DAI,black cutworm larvae; seed treatment 250 g/100 kg,3.0%
same,Plant Defol. 10 DAI,black cutworm larvae; seed treatment 250 g/100 kg,1.7
same,% Stand Reduct'n 3 DAI,black cutworm larvae; seed treatment 500 g/100 kg,0.0%
same,Plant Defol. 3 DAI,black cutworm larvae; seed treatment 500 g/100 kg,2.0
same,% Stand Reduct'n 7 DAI,black cutworm larvae; seed treatment 500 g/100 kg,0.0%
same,% Stand Reduct'n 7 DAI,"black cutworm larvae; seed treatment 500 g/100 kg, listed as lambda-cyhalothrin",0%
same,Plant Defol. 7 DAI,black cutworm larvae; seed treatment 500 g/100 kg,2.3
same,% Stand Reduct'n 10 DAI,black cutworm larvae; seed treatment 500 g/100 kg,0.0%
same,Plant Defol. 10 DAI,black cutworm larvae; seed treatment 500 g/100 kg,1.0
same,protection of corn plants against shoot/foliar feeding damage by black cutworm,black cutworm larvae; seed treatment prior to planting,significant protection
